Experimental data from ChEMBL document CHEMBL4706602, “β-lactam antibiotics: An overview from a medicinal chemistry perspective” (Eur J Med Chem, 2020).
Each block holds one compound with its values, some of them ahead of it.

How the values were obtained:
[1] = Half life in human at 600 mg, iv administered every 12 hrs as 1 hr infusion; format: ADME, organism-based; conditions: in vivo
[2] = Protein binding in plasma (unknown origin); format: ADME, cell-free; conditions: read-out: PPB (converted)
[3] = Oral bioavailability in human; format: ADME, organism-based; conditions: in vivo
[4] = Bioavailability in human at 500 mg, IM; format: ADME, organism-based; conditions: in vivo
[5] = Drug excretion in human urine assessed as unaltered drug; format: ADME; conditions: read-out: Drug excretion
[6] = Half life of compound in human; format: ADME
[7] = Chemical stability of compound assessed as compound degradation at 37 degreeC measured for 24 hrs; format: physicochemical; conditions: read-out: Drug degradation
[8] = Elimination half life in human at 1 g, iv infusion for 30 mins; format: ADME, organism-based; conditions: in vivo, read-out: beta t1/2 (converted)
[9] = Half life of compound; format: physicochemical

SMILES: CCO/N=C(\C(=O)N[C@@H]1C(=O)N2C(C(=O)O)=C(Sc3nc(-c4cc[n+](C)cc4)cs3)CS[C@H]12)c1nsc(NP(=O)(O)O)n1.[Na+]
half-life [1]: 1.6 h

SMILES: CC1(C)S[C@@H]2[C@H](NC(=O)[C@H](N)c3ccc(O)cc3)C(=O)N2[C@H]1C(=O)O [AMOXICILLIN]
fraction unbound [2]: 0.7

SMILES: C[C@H]1[C@H](NC(=O)/C(=N\OC(C)(C)C(=O)O)c2csc(N)n2)C(=O)N1S(=O)(=O)O [AZTREONAM]
bioavailability [3]: 1% | bioavailability [4]: 100% | dose excreted [5]: 68%

SMILES: CC1(C)S[C@@H]2[C@H](NC(=O)C(C(=O)O)c3ccccc3)C(=O)N2[C@H]1C(=O)O (some centres not stated) [CARBENICILLIN]
half-life [6]: 1 h

SMILES: Cc1onc(-c2ccccc2)c1C(=O)N[C@@H]1C(=O)N2[C@@H]1SC(C)(C)[C@@H]2C(=O)O [OXACILLIN]
fraction unbound [2]: 0.1

More lines, now with the values ahead:

fraction unbound [2]: 0.1
SMILES: Cc1onc(-c2ccccc2Cl)c1C(=O)N[C@@H]1C(=O)N2[C@@H]1SC(C)(C)[C@@H]2C(=O)O [CLOXACILLIN]

degraded at 24 h [7]: 60% | half-life [8]: 1 h
SMILES: C[C@@H](O)[C@H]1C(=O)N2C(C(=O)O)=C(S[C@@H]3CN[C@H](C(=O)N(C)C)C3)[C@H](C)[C@H]12 [MEROPENEM]

fraction unbound [2]: 0.4 | half-life [9]: 0.333 h
SMILES: CC1(C)S[C@@H]2[C@H](NC(=O)Cc3ccccc3)C(=O)N2[C@H]1C(=O)O [PENICILLIN G]
